US9549932B2, “2-(morpholin-4-yl)-1,7-naphthyridines” (BAYER PHARMA AKTIENGESELLSCHAFT, priority 2014, dated 2017)
Read-outs that look alike come from different tables or passages of the source.

Target: full-length human ATR protein (Homo sapiens (Human), UniProt Q13535)
Experiment: Binding assay ATR (TR-FRET tracer displacement)
Conditions: TR-FRET
Summary of the method: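 Full-length human GST-ATR co-purified with ATRIP, pre-complexed 30 min at 22 °C with anti-GST-Tb antibody, then pre-bound with compound 10 min. Tracer A or B added (2 µl of 100 nM solution), 30 min at 22 °C.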

[1] = tracer A, read-out: ATR binding (tracer A) IC50
[2] = tracer B, read-out: ATR binding (tracer B) IC50

full-length human ATR protein, sequence (Q13535 other isoform, or with tags, fused parts or gaps): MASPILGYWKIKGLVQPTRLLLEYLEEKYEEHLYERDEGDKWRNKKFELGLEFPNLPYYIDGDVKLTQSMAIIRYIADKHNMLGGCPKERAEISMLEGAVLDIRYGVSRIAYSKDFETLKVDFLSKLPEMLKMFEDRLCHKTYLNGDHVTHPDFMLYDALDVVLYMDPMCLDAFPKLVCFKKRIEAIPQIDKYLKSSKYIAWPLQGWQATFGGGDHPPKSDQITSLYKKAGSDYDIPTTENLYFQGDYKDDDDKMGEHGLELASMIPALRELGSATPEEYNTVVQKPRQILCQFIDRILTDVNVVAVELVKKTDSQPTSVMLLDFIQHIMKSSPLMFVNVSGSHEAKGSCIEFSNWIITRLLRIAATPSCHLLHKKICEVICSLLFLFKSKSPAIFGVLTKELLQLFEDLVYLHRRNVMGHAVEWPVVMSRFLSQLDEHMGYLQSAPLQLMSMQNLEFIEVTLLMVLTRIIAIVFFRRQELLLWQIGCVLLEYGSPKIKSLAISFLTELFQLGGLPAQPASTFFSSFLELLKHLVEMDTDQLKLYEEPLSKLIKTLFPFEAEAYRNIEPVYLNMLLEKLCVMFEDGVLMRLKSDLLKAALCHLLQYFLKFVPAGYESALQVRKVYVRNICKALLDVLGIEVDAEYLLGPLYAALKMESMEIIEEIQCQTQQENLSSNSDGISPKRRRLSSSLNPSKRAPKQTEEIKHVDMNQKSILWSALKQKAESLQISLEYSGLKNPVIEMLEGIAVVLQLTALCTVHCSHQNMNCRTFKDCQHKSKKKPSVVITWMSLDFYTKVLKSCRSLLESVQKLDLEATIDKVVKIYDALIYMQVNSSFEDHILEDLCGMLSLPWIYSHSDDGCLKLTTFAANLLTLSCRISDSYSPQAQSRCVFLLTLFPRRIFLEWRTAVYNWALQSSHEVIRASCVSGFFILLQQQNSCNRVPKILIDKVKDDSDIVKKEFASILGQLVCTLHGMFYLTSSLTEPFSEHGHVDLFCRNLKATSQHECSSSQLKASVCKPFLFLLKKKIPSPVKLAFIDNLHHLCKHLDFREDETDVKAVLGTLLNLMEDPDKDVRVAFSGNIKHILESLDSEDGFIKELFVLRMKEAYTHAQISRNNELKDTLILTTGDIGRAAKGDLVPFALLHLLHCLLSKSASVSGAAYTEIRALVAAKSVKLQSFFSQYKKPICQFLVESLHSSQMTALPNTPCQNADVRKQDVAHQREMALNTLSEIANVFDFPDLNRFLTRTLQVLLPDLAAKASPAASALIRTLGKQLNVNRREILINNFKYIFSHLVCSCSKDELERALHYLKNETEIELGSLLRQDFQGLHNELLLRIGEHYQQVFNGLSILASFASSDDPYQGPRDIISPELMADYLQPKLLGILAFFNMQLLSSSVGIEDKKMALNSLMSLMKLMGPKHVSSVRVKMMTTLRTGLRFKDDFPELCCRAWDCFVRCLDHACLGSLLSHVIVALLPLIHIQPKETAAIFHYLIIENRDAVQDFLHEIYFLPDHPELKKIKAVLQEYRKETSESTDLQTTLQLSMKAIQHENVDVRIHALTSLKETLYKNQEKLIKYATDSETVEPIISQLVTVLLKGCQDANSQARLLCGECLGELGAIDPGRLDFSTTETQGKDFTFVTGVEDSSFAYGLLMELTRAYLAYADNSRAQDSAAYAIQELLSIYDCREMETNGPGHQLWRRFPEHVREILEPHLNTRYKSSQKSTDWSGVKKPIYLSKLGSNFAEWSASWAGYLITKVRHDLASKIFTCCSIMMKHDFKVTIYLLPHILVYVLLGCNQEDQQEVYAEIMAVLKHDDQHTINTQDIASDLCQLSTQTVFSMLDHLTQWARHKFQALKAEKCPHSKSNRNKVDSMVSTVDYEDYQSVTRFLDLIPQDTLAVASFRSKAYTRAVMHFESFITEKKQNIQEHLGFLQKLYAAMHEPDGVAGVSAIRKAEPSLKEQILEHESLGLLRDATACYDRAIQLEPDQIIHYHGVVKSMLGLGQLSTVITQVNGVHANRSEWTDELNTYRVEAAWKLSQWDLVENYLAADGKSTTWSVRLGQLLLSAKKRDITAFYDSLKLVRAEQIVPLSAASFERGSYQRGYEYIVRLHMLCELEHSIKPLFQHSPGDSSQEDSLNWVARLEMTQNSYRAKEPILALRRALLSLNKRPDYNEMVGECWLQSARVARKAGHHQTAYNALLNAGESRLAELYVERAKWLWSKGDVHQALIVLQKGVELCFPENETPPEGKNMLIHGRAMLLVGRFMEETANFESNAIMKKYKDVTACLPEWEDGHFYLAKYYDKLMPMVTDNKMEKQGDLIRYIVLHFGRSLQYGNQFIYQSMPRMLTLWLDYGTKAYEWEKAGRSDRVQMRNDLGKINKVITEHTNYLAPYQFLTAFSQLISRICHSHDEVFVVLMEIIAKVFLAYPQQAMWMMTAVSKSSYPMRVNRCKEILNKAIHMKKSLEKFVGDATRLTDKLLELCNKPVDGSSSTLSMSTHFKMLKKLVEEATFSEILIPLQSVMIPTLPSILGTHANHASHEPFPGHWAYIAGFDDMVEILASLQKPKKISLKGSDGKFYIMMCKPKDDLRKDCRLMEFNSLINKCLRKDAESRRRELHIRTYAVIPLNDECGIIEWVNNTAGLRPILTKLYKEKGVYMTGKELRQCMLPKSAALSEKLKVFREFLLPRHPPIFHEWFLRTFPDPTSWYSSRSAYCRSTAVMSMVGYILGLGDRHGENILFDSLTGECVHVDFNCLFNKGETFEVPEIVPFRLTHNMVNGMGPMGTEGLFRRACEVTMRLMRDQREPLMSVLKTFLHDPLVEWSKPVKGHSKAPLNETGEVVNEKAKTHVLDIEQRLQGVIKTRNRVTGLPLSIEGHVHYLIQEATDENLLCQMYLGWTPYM
full-length human ATR protein, sequence (Q8WXE1 other isoform, or with tags, fused parts or gaps partner): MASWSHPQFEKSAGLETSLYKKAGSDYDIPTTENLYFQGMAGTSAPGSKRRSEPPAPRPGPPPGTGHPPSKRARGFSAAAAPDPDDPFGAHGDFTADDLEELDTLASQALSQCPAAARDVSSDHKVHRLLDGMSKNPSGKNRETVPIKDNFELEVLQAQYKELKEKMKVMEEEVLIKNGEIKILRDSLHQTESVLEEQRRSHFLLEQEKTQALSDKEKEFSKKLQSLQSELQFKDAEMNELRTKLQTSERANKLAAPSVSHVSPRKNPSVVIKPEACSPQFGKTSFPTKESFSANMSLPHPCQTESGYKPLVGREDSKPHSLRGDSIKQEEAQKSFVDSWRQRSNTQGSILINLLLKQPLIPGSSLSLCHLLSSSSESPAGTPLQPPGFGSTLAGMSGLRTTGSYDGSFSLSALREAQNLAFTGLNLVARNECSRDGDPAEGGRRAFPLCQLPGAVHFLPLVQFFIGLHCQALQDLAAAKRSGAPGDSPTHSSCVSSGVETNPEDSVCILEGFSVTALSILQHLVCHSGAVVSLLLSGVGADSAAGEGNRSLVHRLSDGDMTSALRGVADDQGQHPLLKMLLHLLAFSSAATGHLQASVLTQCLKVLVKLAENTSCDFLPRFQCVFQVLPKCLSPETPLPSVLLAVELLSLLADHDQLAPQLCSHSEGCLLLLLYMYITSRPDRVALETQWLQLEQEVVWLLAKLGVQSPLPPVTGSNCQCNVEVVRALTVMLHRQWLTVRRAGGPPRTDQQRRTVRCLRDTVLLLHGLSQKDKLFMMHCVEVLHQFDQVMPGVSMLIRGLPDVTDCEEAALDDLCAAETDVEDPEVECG

SMILES	IC50 [1]	IC50 [2]
COCc1noc(C)c1-c1cc(N2CCOC[C@H]2C)nc2c(-c3ccn[nH]3)nccc12 [Example 135, 4-[3-(methoxymethyl)-5-methyl-1,2-oxazol-4-yl]-2-[(3R)-3-methylmorpholin-4-yl]-8-(1H-pyrazol-5-yl)-1,7-naphthyridine]	0.0329 µM	
Cc1ccc(-c2cc(N3CCOC[C@H]3C)nc3c(-c4ccn[nH]4)nccc23)s1 [Example 100, 2-[(3R)-3-methylmorpholin-4-yl]-4-(5-methyl-2-thienyl)-8-(1H-pyrazol-5-yl)-1,7-naphthyridine]	0.0165 µM	
CN(c1cc(N2CCOCC2)nc2c(-c3ccn[nH]3)nccc12)C1CC1 [Example 435, N-cyclopropyl-N-methyl-2-(morpholin-4-yl)-8-(1H-pyrazol-5-yl)-1,7-naphthyridin-4-amine]	0.0651 µM	
Cn1cc(-c2cc(N3CCOCC3)nc3c(-c4ccn[nH]4)nccc23)cn1 [Example 367, 4-(1-methyl-1H-pyrazol-4-yl)-2-(morpholin-4-yl)-8-(1H-pyrazol-5-yl)-1,7-naphthyridine]	0.215 µM	
CCOc1cc(N2CCOCC2)nc2c(-c3cc[nH]n3)nccc12 [Example 43, 4-ethoxy-2-(morpholin-4-yl)-8-(1H-pyrazol-3-yl)-[1,7]naphthyridine]	0.493 µM	0.258 µM
c1ccc2c(c1)CCCN2c1cc(N2CCOCC2)nc2c(-c3ccn[nH]3)nccc12 [Example 418, 4-(3,4-dihydroquinolin-1(2H)-yl)-2-(morpholin-4-yl)-8-(1H-pyrazol-5-yl)-1,7-naphthyridine]	0.0941 µM	
C[C@@H]1COCCN1c1cc(-c2sccc2Cl)c2ccnc(-c3ccn[nH]3)c2n1 [Example 102, 4-(3-chloro-2-thienyl)-2-[(3R)-3-methylmorpholin-4-yl]-8-(1H-pyrazol-5-yl)-1,7-naphthyridine]	0.0123 µM	
C[C@@H]1COCCN1c1cc(OCCCNC(=O)OC(C)(C)C)c2ccnc(-c3ccn[nH]3)c2n1 [Example 54, Tert-butyl [3-({2-[(3R)-3-methylmorpholin-4-yl]-8-(1H-pyrazol-5-yl)-1,7-naphthyridin-4-yl}oxy)propyl]carbamate]	0.288 µM	0.129 µM
CS(C)(=O)=Nc1cc(N2CCOCC2)nc2c(-c3ccn[nH]3)nccc12 [Example 65, 4-{[dimethyl(oxido)-λ^6-sulfanylidene]amino}-2-(morpholin-4-yl)-8-(1H-pyrazol-5-yl)-1,7-naphthyridine]	0.335 µM	0.276 µM
CC1CCN(c2cc(N3CCOC[C@H]3C)nc3c(-c4ccn[nH]4)nccc23)CC1 [Example 109, 2-[(3R)-3-methylmorpholin-4-yl]-4-(4-methylpiperidin-1-yl)-8-(1H-pyrazol-5-yl)-1,7-naphthyridine]	0.00914 µM	
O=C1CCCCN1c1cc(N2CCOCC2)nc2c(-c3ccn[nH]3)nccc12 [Example 217, 1-[2-(morpholin-4-yl)-8-(1H-pyrazol-5-yl)-1,7-naphthyridin-4-yl]piperidin-2-one]	0.802 µM	
CC(=O)Nc1cccc(-c2cc(N3CCOCC3)nc3c(-c4ccn[nH]4)nccc23)c1 [Example 305, N-{3-[2-(morpholin-4-yl)-8-(1H-pyrazol-5-yl)-1,7-naphthyridin-4-yl]phenyl}acetamide]	0.133 µM	
C[C@@H]1COCCN1c1cc(N2CCn3ccnc3C2)c2ccnc(-c3ccn[nH]3)c2n1 [Example 86, 4-(5,6-dihydroimidazo[1,2-a]pyrazin-7(8H)-yl)-2-[(3R)-3-methylmorpholin-4-yl]-8-(1H-pyrazol-5-yl)-1,7-naphthyridine]	0.0109 µM	
C[C@@H]1COCCN1c1cc(-c2cnc(F)cc2F)c2ccnc(-c3ccn[nH]3)c2n1 [Example 247, 4-(4,6-difluoropyridin-3-yl)-2-[(3R)-3-methylmorpholin-4-yl]-8-(1H-pyrazol-5-yl)-1,7-naphthyridine]	0.0216 µM	
COc1cccc(OC)c1-c1cc(N2CCOCC2)nc2c(-c3ccn[nH]3)nccc12 [Example 342, 4-(2,6-dimethoxyphenyl)-2-(morpholin-4-yl)-8-(1H-pyrazol-5-yl)-1,7-naphthyridine]	2.77 µM	
C[C@@H]1COCCN1c1cc(N2CCCC2)c2ccnc(-c3ccn[nH]3)c2n1 [Example 175, 2-[(3R)-3-methylmorpholin-4-yl]-8-(1H-pyrazol-5-yl)-4-(pyrrolidin-1-yl)-1,7-naphthyridine]	0.221 µM	
NC(=O)c1ccc(-c2cc(N3CCOCC3)nc3c(-c4ccn[nH]4)nccc23)cc1 [Example 296, 4-[2-(morpholin-4-yl)-8-(1H-pyrazol-5-yl)-1,7-naphthyridin-4-yl]benzamide]	0.0768 µM	
OC[C@H]1CCCN(c2cc(N3CCOCC3)nc3c(-c4ccn[nH]4)nccc23)C1 (stereo in doubt) [Example 437, {1-[2-(morpholin-4-yl)-8-(1H-pyrazol-5-yl)-1,7-naphthyridin-4-yl]piperidin-3-yl}methanol]	0.118 µM	
Oc1ccc(-c2cc(N3CCOCC3)nc3c(-c4ccn[nH]4)nccc23)cn1 [Example 23, 5-[2-(morpholin-4-yl)-8-(1H-pyrazol-5-yl)-1,7-naphthyridin-4-yl]pyridin-2(1H)-one]	0.443 µM	
Fc1ccc(-c2cc(N3CCOCC3)nc3c(-c4ccn[nH]4)nccc23)cc1 [Example 314, 4-(4-fluorophenyl)-2-(morpholin-4-yl)-8-(1H-pyrazol-5-yl)-1,7-naphthyridine]	0.0679 µM	
C[C@@H]1COCCN1c1cc(-c2cnn(C3CC3)c2)c2ccnc(-c3ccn[nH]3)c2n1 [Example 254, 4-(1-cyclopropyl-1H-pyrazol-4-yl)-2-[(3R)-3-methylmorpholin-4-yl]-8-(1H-pyrazol-5-yl)-1,7-naphthyridine]	0.0448 µM	
Cc1cccnc1-c1cc(N2CCOC[C@H]2C)nc2c(-c3ccn[nH]3)nccc12 [Example 165, 2-[(3R)-3-methylmorpholin-4-yl]-4-(3-methylpyridin-2-yl)-8-(1H-pyrazol-5-yl)-1,7-naphthyridine]	0.224 µM	
Cc1cc(COc2cc(N3CCOCC3)nc3c(-c4ccn[nH]4)nccc23)no1 [Example 49, 4-[(5-methyl-1,2-oxazol-3-yl)methoxy]-2-(morpholin-4-yl)-8-(1H-pyrazol-5-yl)-1,7-naphthyridine]	0.2 µM	
Oc1ccc(-c2cc(N3CCOCC3)nc3c(-c4ccn[nH]4)nccc23)cc1 [Example 326, 4-[2-(morpholin-4-yl)-8-(1H-pyrazol-5-yl)-1,7-naphthyridin-4-yl]phenol]	0.0732 µM	
c1ccc2sc(-c3cc(N4CCOCC4)nc4c(-c5ccn[nH]5)nccc34)cc2c1 [Example 347, 4-(1-benzothiophen-2-yl)-2-(morpholin-4-yl)-8-(1H-pyrazol-5-yl)-1,7-naphthyridine]	0.241 µM	
C[C@@H]1COCCN1c1cc(-c2cc(S(C)(=O)=O)ccc2F)c2ccnc(-c3ccn[nH]3)c2n1 [Example 150, 4-[2-fluoro-5-(methylsulfonyl)phenyl]-2-[(3R)-3-methylmorpholin-4-yl]-8-(1H-pyrazol-5-yl)-1,7-naphthyridine]	0.0503 µM	
CN=S(C)(=O)c1ccc(-c2cc(N3CCOCC3)nc3c(-c4ccn[nH]4)nccc23)cc1 (stereo not shown) [Example 5, 4-[4-(N,S-dimethylsulfonimidoyl)phenyl]-2-[morpholin-4-yl]-8-(1H-pyrazol-5-yl)-1,7-naphthyridine]	0.0643 µM	0.0341 µM
